Values joined by “and” are separate entries in the source; they are usually repeats but may differ in a detail not shown here. Equal values may be shown once. Read-outs that look alike come from different tables or passages of the source.
How the values were obtained:
EphrinB2-EphB2 [1] = target: T1, EphrinB2-EphB2 (Homo sapiens, UniProt P29323); experiment: Octet tetramerization inhibition, immobilized human EphrinB2 binding to 50 nM soluble human EphB2
T1 construct: soluble human EphB1-His, EphB2-His, and EphB4-His ectodomains; commercially available human EphrinB1-Fc (EB1), EphrinB2-Fc (EB2), and EphrinB3-Fc (EB3) ectodomain proteins; purchased
T1 sequence (P29323 19-543 limits assumed): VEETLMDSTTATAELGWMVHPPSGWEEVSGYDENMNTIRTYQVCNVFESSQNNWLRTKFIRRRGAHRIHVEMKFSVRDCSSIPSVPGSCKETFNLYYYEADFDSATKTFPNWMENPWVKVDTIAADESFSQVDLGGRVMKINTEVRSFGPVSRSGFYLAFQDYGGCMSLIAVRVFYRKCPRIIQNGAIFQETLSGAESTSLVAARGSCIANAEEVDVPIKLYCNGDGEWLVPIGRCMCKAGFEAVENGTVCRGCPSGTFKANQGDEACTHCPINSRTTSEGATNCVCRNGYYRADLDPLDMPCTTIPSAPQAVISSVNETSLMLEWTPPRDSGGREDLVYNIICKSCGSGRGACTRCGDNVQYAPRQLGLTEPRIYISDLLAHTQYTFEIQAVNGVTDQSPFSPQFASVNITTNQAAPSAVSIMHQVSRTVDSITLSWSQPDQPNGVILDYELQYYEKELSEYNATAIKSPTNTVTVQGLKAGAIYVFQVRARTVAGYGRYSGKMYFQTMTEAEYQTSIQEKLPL

EphrinB2-EphB1 = target: T2, EphrinB2-EphB1 (Homo sapiens, UniProt P54762); experiment: Octet 80 sec association/500 sec dissociation, immobilized human EphrinB2-Fc binding to soluble human EphB1-His; settings: for EphB1 Inhibition Percent, Inhibition of Association-Dissociation: at 3.2 μM and 580 seconds; for % Inhibition: Association + Dissociation (160 sec) / inhibition at 3.2 µM: EphB1, 25 nM EphB1, 3.2 μM compound, A20-I as max control, 0* = less than 0, no inhibition
T2 construct: soluble human EphB1-His, EphB2-His, and EphB4-His ectodomains; commercially available human EphrinB1-Fc (EB1), EphrinB2-Fc (EB2), and EphrinB3-Fc (EB3) ectodomain proteins; purchased
T2 sequence (P54762 18-540 limits assumed): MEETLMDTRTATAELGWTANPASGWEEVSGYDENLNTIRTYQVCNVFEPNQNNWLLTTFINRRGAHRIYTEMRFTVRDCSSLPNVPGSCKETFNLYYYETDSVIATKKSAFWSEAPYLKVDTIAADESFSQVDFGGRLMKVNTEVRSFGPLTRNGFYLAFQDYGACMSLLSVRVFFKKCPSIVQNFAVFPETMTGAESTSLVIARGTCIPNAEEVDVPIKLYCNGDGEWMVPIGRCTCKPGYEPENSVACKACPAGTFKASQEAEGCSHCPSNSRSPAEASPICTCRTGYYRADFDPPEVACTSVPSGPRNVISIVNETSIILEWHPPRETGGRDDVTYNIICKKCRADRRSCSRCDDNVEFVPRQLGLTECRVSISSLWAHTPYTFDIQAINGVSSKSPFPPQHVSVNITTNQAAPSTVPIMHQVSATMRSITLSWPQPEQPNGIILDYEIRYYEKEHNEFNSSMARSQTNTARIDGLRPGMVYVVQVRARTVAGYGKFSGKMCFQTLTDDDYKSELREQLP
Outline: (§1)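 EphrinB2-Fc captured on AHC biosensors, then soluble His-tagged EphB ectodomain (25 nM for % inhibition runs) associated 80 s and dissociated 500 s in PBS, 0.05% Tween-20, 1% DMSO ± compound. Compounds tested at 0.1–3.2 μM with a 10 μM max standard; IC50 from AUC of full traces or at 75 s and 135 s.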

EphrinB2-EphB2 [2] = target: T1, EphrinB2-EphB2; experiment: Octet 80 sec association/500 sec dissociation, immobilized human EphrinB2-Fc binding to soluble human EphB2-His; settings: for EphB2 Inhibition Percent, Inhibition of Association-Dissociation: at 3.2 μM and 580 seconds
Outline: as §1

[3] = Absolute AUC/IC50, Table A, EphrinB2-EphB2
[4] = Absolute Association IC50 (300 sec), Table A, EphrinB2-EphB2
[5] = Absolute Dissociation IC50 (450 sec), Table A, EphrinB2-EphB2
[6] = Relative AUC/IC50, Table A, EphrinB2-EphB2, compound 7: association only
[7] = Relative Association IC50 (300 sec), Table A, EphrinB2-EphB2
[8] = Relative Dissociation IC50 (450 sec), Table A, EphrinB2-EphB2
[9] = immobilized human EphrinB2, 25 nM soluble human EphB1
[10] = immobilized human EphrinB2, 25 nM soluble human EphB2
[11] = tetramerization inhibitor IC50 (relative), association step, surmountable tetramer
[12] = EphB2, 25 nM EphB2, 3.2 μM compound, A20-I as max control, 0* = less than 0, no inhibition, listed as A19-NO2 (B)

Row | Structure (SMILES) | IC50 (EphrinB2-EphB2 [1]; [3]) | IC50 (EphrinB2-EphB2 [1]; [4]) | IC50 (EphrinB2-EphB2 [1]; [5]) | IC50 (EphrinB2-EphB2 [1]; [6]) [nM] | IC50 (EphrinB2-EphB2 [1]; [7]) | IC50 (EphrinB2-EphB2 [1]; [8]) | EphB1 Inhibition Percent, Inhibition of Association-Dissociation (EphrinB2-EphB1; [9]) | EphB2 Inhibition Percent, Inhibition of Association-Dissociation (EphrinB2-EphB2 [2]; [10]) | IC50 (EphrinB2-EphB2 [1]; [11]) [nM] | further results
1 | Oc1c(I)cc(CN2CCOCC2)c2cccnc12 [Compound 8, 4-((8-hydroxy-7-iodoquinolin-1-ium-5-yl)methyl)morpholin-4-ium chloride] | 1320 nM and 1000 nM and 1480 nM | 1380 nM and 1350 nM and > 3200 nM | 980 nM and 1260 nM and 850 nM | 630 | 630 nM and 850 nM | 660 nM and 930 nM | 53.2% | 73.6% | – | –
2 | O=[N+]([O-])c1cc(CN2CCOCC2)c2cccnc2c1O [Compound 9, 5-(morpholinomethyl)-7-nitroquinolin-8-ol] | > 3200 nM | > 3200 nM | > 3200 nM | > 3200 | > 3200 nM | > 3200 nM | 36.9% and 29.8% and 22.8% | 58.0% (2×) and 38.9% | > 3000 | tetramerization inhibitor activity (EphrinB2-EphB2 [1]): weak, essentially inactive; % Inhibition: Association + Dissociation (160 sec) (EphrinB2-EphB1; listed as A19-NO2 (A)): 36.9% and 29.8%; inhibition of EphB1-EphrinB2 binding (EphrinB2-EphB1; association step, general): 25%; EphB1 Inhibition Percent, Inhibition of Association ONLY (EphrinB2-EphB1; at 3.2 μM and 80 seconds, immobilized human EphrinB2, 25 nM soluble human EphB1): 22.5% and 16.1% and 15.7%; % Inhibition: Association + Dissociation (160 sec) (EphrinB2-EphB2 [2]; EphB2, 25 nM EphB2, 3.2 μM compound, A20-I as max control, 0* = less than 0, no inhibition, listed as A19-NO2 (A)): 58.0% and 38.9%; inhibition of EphB2-EphrinB2 binding (EphrinB2-EphB2 [2]; association step, general): 40%
3 | O=[N+]([O-])c1cc(CN2CCOCC2)c2cccnc2c1O [Compound 10, 4-((8-hydroxy-7-nitroquinolin-1-ium-5-yl)methyl)morpholin-4-ium chloride] | > 1600 nM | > 1600 nM | > 1600 nM | > 1600 | > 1600 nM | > 1600 nM | 23.1% and 14.2% and 20.2% | 24.5% and 24.2% and 21.0% | – | % Inhibition: Association + Dissociation (160 sec) (EphrinB2-EphB1; listed as A19-NO2 (B)): 14.2%; % Inhibition: Association + Dissociation (160 sec) (EphrinB2-EphB2 [2]; [12]): 24.2%; % Inhibition: Association ONLY (80 sec) (EphrinB2-EphB2 [2]; [12]): 11.6%; EphB2 Inhibition Percent, Inhibition of Association ONLY (EphrinB2-EphB2 [2]; at 3.2 μM and 80 seconds, immobilized human EphrinB2, 25 nM soluble human EphB2): 9.2% and 11.6% and 16.5%
4 | OCc1ccc2c(CN3CCOCC3)cc(Br)c(O)c2n1 [Compound 13, 7-bromo-2-(hydroxymethyl)-5-(morpholinomethyl)quinolin-8-ol] | > 3200 nM | > 3200 nM | 2510 nM | 1450 | 1410 nM | 1540 nM | – | – | ~1600 | inhibition at 3.2 µM (EphrinB2-EphB1; read-out: % Inhibition: Association + Dissociation (160 sec)): 29.1%; inhibition at 3.2 µM (EphrinB2-EphB1; read-out: % Inhibition: Association ONLY (80 sec)): 12.4%; inhibition at 3.2 µM (EphrinB2-EphB2 [2]; EphB2, 25 nM EphB2, 3.2 μM compound, A20-I as max control, 0* = less than 0, no inhibition, read-out: % Inhibition: Association + Dissociation (160 sec)): 68.4%; inhibition at 3.2 µM (EphrinB2-EphB2 [2]; EphB2, 25 nM EphB2, 3.2 μM compound, A20-I as max control, 0* = less than 0, no inhibition, read-out: % Inhibition: Association ONLY (80 sec)): 50.5%
